Common to all, as to experiment: DTP human tumour cell line panel, 48 h
Experiment [1] deals with A549 NSCLC.
Experiment [2] has as its system TK-10 renal.
In experiment [3] the test system is SF-268 CNS.
In experiment [4] the test system is IGROV1 ovarian.
The test system of experiment [5] is NCI/ADR-RES ovarian.
Experiment [6] concerns UO-31 renal.
For experiment [7], the system named is COLO 205 colon.
Experiment [8] relates to SF-295 CNS.
In experiment [9] the test system is HCT-116 colon.
Experiment [10] concerns OVCAR-4 ovarian.
Experiment [11] concerns EKVX NSCLC.
Experiment [12] deals with SK-MEL-2 melanoma.
Experiment [13] deals with 786-0 renal.
Experiment [14] deals with SN12C renal.
Experiment [15] has as its system SK-OV-3 ovarian.
Experiment [16] relates to MDA-MB-231 breast.
For experiment [17], the system named is MDA-MB-435.
In experiment [18] the test system is NCI-H460 lung.
Experiment [19] relates to A498 renal.
The subject of experiment [20] is RPMI-8226 leukemia.

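The compound was tested at five concentrations on cells cultured in 96-well plates, with a 48-hour exposure period. TGI: total growth inhibition.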

`Cc1cccc(C)c1NC(=O)C(Cc1c[nH]c2ccccc12)NC(=O)OCc1ccccc1` (stereo unspecified): the TGI is 46.6 µM in experiment [1]; 43.7 µM in experiment [2]; > 100 µM in experiment [3]; 73 µM in experiment [4]; 40.3 µM in experiment [5]; 32.9 µM in experiment [6]. Moreover, the TGI in experiment [7] was 27.6 µM; in experiment [8], 38.9 µM; in experiment [9] it was > 100 µM; in [10], 37.1 µM; in experiment [11] it was 45.3 µM; in experiment [12] it was 34.4 µM. In addition, the TGI in experiment [13] came out at 53.6 µM; in [14] it was 80.7 µM; in experiment [15], 65.1 µM; in experiment [16], 48.2 µM; in [17], 48.5 µM; in [18], 43.6 µM. Also, the TGI was 69.8 µM in experiment [19] and 55.3 µM in [20].

Take `Cc1c(O)nc(-n2[nH]c3c(c2=O)CCCC3)[nH]c1=O`: the TGI in [2], in [3], in experiment [4], in [5], in experiment [6] and in [7] was > 100 µM throughout. Also, the TGI in [8], in experiment [9], in experiment [10], in experiment [11], in [12] and in experiment [13] was > 100 µM in each case. In addition, the TGI in experiment [14], in experiment [15], in experiment [16], in experiment [17], in [18] and in [19] was > 100 µM in each case. Further, the TGI in experiment [20] is > 100 µM.

Turning to `C/C(C[n+]1ccccc1)=N\N=C(N)N`, the TGI in [1], in [2], in experiment [3], in experiment [4], in [5] and in [6] was > 100 µM throughout. Moreover, the TGI in experiment [7], in experiment [8], in [9], in experiment [10], in [11] and in experiment [12] was > 100 µM each time. The TGI in experiment [13], in experiment [14], in [15], in experiment [16], in [17] and in experiment [18] was > 100 µM each time. Further, the TGI in experiment [19] and in [20] was > 100 µM throughout.

Turning to `Oc1cc(Cl)cc2cccnc12`, the TGI is > 100 µM in experiment [1]; > 100 µM in [2]; > 39.5 µM in [3]; 5.12 µM in experiment [4]; 5.37 µM in experiment [5]; > 100 µM in experiment [6]. Moreover, the TGI in [7] is 26.1 µM; in experiment [8], 15.9 µM; in experiment [9], > 23.3 µM; in experiment [10], > 100 µM; in experiment [11], > 30.1 µM; in experiment [12], > 100 µM. The TGI was > 54.9 µM in [13]; > 100 µM in [14]; > 100 µM in experiment [15]; 39.7 µM in experiment [16]; > 77.6 µM in experiment [17]; 18.6 µM in experiment [18]. In addition, the figures for the TGI in experiment [19] and in [20] were 59.6 µM and 5.31 µM, respectively.

As for `O=C(O)CN1CCN2CCCCCN(CC1)CCN(CC(=O)O)CC2`, the TGI in [1], in [2], in experiment [4], in experiment [5], in experiment [6] and in [7] was > 100 µM each time. For the same compound, the TGI in experiment [8], in experiment [9], in experiment [10], in experiment [11], in experiment [12] and in experiment [13] was > 100 µM in each case. In addition, the TGI in experiment [14], in experiment [15], in experiment [16], in experiment [17], in experiment [18] and in experiment [19] was > 100 µM each time. Besides, in experiment [20], the TGI was > 100 µM.

Turning to `Cc1cc(/N=C/c2ccc(N(C)C)cc2)n(-c2ccccc2)n1`, the concentration for total growth inhibition (TGI) in experiment [1], in [2], in [3], in experiment [4], in experiment [5] and in experiment [6] was > 100 µM in each case. The TGI in experiment [7], in experiment [8], in experiment [9], in experiment [10], in experiment [11] and in experiment [12] was > 100 µM throughout. For the same compound, the TGI in [13], in experiment [14], in experiment [15], in experiment [16], in experiment [17] and in [18] was > 100 µM throughout. Besides, the TGI is 84.5 µM in experiment [19] and > 100 µM in experiment [20].

`COC1=CC(=O)c2c(c(-c3nc(C)cs3)cn2C)C1=O`: the TGI in [1] was 12 µM; in experiment [2], > 100 µM; in [3], 39.6 µM; in [4], 20.5 µM; in experiment [5], 31 µM; in experiment [6] it was > 91.2 µM. In addition, the TGI was 37.6 µM in experiment [7]; 9.72 µM in experiment [8]; 30.8 µM in experiment [9]; 68.7 µM in [10]; 33.6 µM in experiment [11]; 10.8 µM in [12]. Also, the TGI in experiment [13] is > 100 µM; in experiment [14] it was 27 µM; in [15], > 100 µM; in experiment [16], 72.6 µM; in experiment [17] it was 1.4 µM; in experiment [18], 3.82 µM. Also, the TGI in experiment [19] is 28.7 µM; in [20] it was > 22.1 µM.

Regarding `O=C1NC2c3c(I)sc(I)c3C(O)C2O1` (stereo unspecified), the TGI in experiment [1], in experiment [2], in [3], in experiment [4], in experiment [5] and in [6] was > 100 µM throughout. Further, the concentration for total growth inhibition (TGI) in experiment [7], in [8], in experiment [9], in experiment [10], in experiment [11] and in experiment [12] was > 100 µM throughout. Moreover, the TGI in experiment [13], in experiment [14], in experiment [15], in experiment [16], in experiment [17] and in experiment [18] was > 100 µM throughout. Moreover, the TGI in experiment [19] and in [20] was > 100 µM throughout.

As to `O=C(O)CN1CCNCCN(CC(=O)O)CCN(CC(=O)O)CCNCC1`, the TGI in experiment [1], in experiment [2], in experiment [4], in experiment [5], in experiment [6] and in experiment [7] was > 100 µM each time. The TGI in experiment [8], in experiment [9], in experiment [10], in experiment [11], in [12] and in experiment [13] was > 100 µM in each case. Further, the TGI in experiment [14], in experiment [15], in experiment [16], in [17], in [18] and in [19] was > 100 µM each time. Also, in [20], the TGI is > 100 µM.

Consider `CSC1=N/C(=C\c2ccc(C)cc2)C(=O)N1CN1CCCCC1`, for which the TGI in [1], in experiment [2], in [3], in experiment [4], in [5] and in [6] was > 100 µM throughout. Besides, the TGI in experiment [7], in experiment [8], in [9], in [10], in experiment [11] and in experiment [12] was > 100 µM in each case. Also, the TGI in experiment [13], in experiment [14], in [15], in experiment [16], in experiment [17] and in experiment [19] was > 100 µM throughout. Besides, in [20], the TGI was > 100 µM.

For `CCCNc1ncnc2c1ncn2C`, the TGI in [1], in experiment [2], in experiment [4], in [5], in experiment [6] and in [7] was > 100 µM throughout. Also, the TGI in [8], in experiment [9], in experiment [10], in experiment [11], in experiment [12] and in experiment [13] was > 100 µM each time. Moreover, the TGI was 98.2 µM in [14]; > 100 µM in [15]; > 100 µM in experiment [16]; > 100 µM in experiment [17]; 95.1 µM in experiment [19]; > 100 µM in experiment [20].

As for `CN1CCOC1c1ccccc1O` (stereo unspecified), the TGI in experiment [1], in experiment [2], in experiment [3], in [4], in experiment [5] and in [6] was > 100 µM throughout. Moreover, the TGI in experiment [7], in [8], in experiment [9], in experiment [10], in experiment [11] and in experiment [12] was > 100 µM in each case. Further, the total growth inhibition concentration (TGI) in experiment [13], in experiment [15], in experiment [16], in experiment [17], in [18] and in experiment [19] was > 100 µM each time. Also, in [20], the TGI is > 100 µM.

Turning to `CSc1cc(-c2cccs2)sc1-c1cc(SC)c(-c2sc(-c3sc(-c4cccs4)cc3SC)cc2SC)s1`, the total growth inhibition concentration (TGI) in [1], in experiment [2], in experiment [3], in [4], in experiment [5] and in [7] was > 100 µM each time. Further, the TGI in [8], in [9], in [10], in experiment [11], in experiment [12] and in [13] was > 100 µM in each case. Also, the concentration for total growth inhibition (TGI) in [14], in experiment [15], in [16], in experiment [17], in experiment [18] and in [19] was > 100 µM throughout. For the same compound, the TGI in experiment [20] is > 100 µM.

`C=CCc1cc(-c2nc(=S)[nH][nH]2)ccc1N=NNc1ccc(C(=O)O)cc1`: the TGI in [1], in experiment [2], in experiment [3], in experiment [4], in experiment [5] and in [6] was > 100 µM throughout. For the same compound, the TGI in experiment [7] is 58 µM; in [8] it was > 100 µM; in experiment [9] it was > 100 µM; in experiment [10], > 100 µM; in [11], > 100 µM; in experiment [12], > 100 µM. Also, the TGI in experiment [13], in experiment [14], in experiment [15], in experiment [16], in experiment [17] and in [19] was > 100 µM each time. For the same compound, the TGI in experiment [20] is > 100 µM.

By TGI is commonly meant the concentration at which net growth stops. The low end stands for greater sensitivity of the cells, the high end for lower sensitivity of the cells.

These data come from PubChem BioAssay (NCI).
